Measured values from patent publication US20020137929A1, “1 - (3-heterocyclylphenyl) isothiourea, -isourea, -guanidine and -amidine herbicidal agents” (Intellectual Property Department, BASF Aktiengesellschaft, priority 1998, published 2002).

What was measured:
SETVI (Foxtail, Green) [1] = assay: Postemergence herbicidal evaluation; type: in vivo, Setaria viridis; conditions: postemergence
In short: (§1)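 Each compound, dispersed in an acetone/water mix (50/50) carrying 0.5% TWEEN 20, is nozzle-sprayed at 40 psi on approximately two-week-old seedlings at about 0.0156–0.500 kg/ha. Plants are assessed 4–5 weeks afterward on a 0–9 scale relative to control; duplicate tests are averaged.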

ORYSAT (Rice, Tebonnet) = assay: Postemergence herbicidal evaluation; type: in vivo, Oryza sativa, (L.) Tebonnet; conditions: postemergence
In short: as §1

ZEAMX (Corn, Field) [2] = assay: Postemergence herbicidal evaluation; type: in vivo, Zea mays; conditions: postemergence
In short: as §1

ECHCG (Barnyardgrass) = assay: Preemergence herbicidal evaluation; type: in vivo, Echinochloa crus-galli; conditions: rated 4-5 weeks after treatment
In short: (§2)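 Preemergence soil application of compound, sprayed in aqueous acetone at rates equivalent to about 0.0156 to 0.500 kg per hectare onto freshly sown cups. Plant response was judged by eye on a 0-9 scale four to five weeks later.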

SETVI (Foxtail, Green) [3] = assay: Preemergence herbicidal evaluation; type: in vivo, Setaria viridis; conditions: rated 4-5 weeks after treatment
In short: as §2

[4] = test system: TRZAWR (Wheat, Winter, cv Riband); assay: Preemergence herbicidal evaluation; type: in vivo, Triticum aestivum; conditions: rated 4-5 weeks after treatment
In short: as §2

ZEAMX (Corn, Field) [5] = assay: Preemergence herbicidal evaluation; type: in vivo, Zea mays; conditions: rated 4-5 weeks after treatment
In short: as §2

[6] = test system: ECHORC (Watergrass (Calif.)); assay: Preemergence weed control under flooded paddy conditions; type: in vivo, Echinochloa oryzoides; conditions: rated 3-4 weeks after treatment
In short: (§3)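 Flooded-pot preemergence screen with silt loam and seeds in the upper 0.5 cm. Dose about 0.0313 to 0.500 kg/ha, delivered into flood water; visual 0-9 score after 3 to 4 weeks.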

CYPIR (Rice Flatsedge) = assay: as above; type: in vivo, Cyperus iria; conditions: rated 3-4 weeks after treatment
In short: as §3

CYPSE (Flatsedge) = assay: as above; type: in vivo, Cyperus serotinus; conditions: rated 3-4 weeks after treatment
In short: as §3

CCCCOC(=O)CN1C(=O)CSC1=Nc1cc(-n2c(=O)cc(C(F)(F)F)n(C)c2=O)c(F)cc1Cl [Compound 111]
4.0: Preemergence herbicidal rating ECHCG (ECHCG (Barnyardgrass); rate 0.2500 kg/ha) | Preemergence herbicidal rating TRZAWR ([4]; rate 0.2500 kg/ha) | Preemergence herbicidal rating ZEAMX (ZEAMX (Corn, Field) [5]; rate 0.1250 kg/ha) | Preemergence herbicidal rating ZEAMX (ZEAMX (Corn, Field) [5]; rate 0.2500 kg/ha) | CYPIR herbicidal effect rating (CYPIR (Rice Flatsedge); 0.1250 kg/ha) | CYPSE herbicidal effect rating (CYPSE (Flatsedge); 0.0625 kg/ha)
7.0: herbicidal rating ZEAMX (ZEAMX (Corn, Field) [2]; rate 0.0630 kg/ha) | Preemergence herbicidal rating SETVI (SETVI (Foxtail, Green) [3]; rate 0.1250 kg/ha) | Preemergence herbicidal rating SETVI (SETVI (Foxtail, Green) [3]; rate 0.2500 kg/ha) | ECHORC herbicidal effect rating ([6]; 0.2500 kg/ha)
9.0: herbicidal rating SETVI (SETVI (Foxtail, Green) [1]; rate 0.0315 kg/ha) | herbicidal rating SETVI (SETVI (Foxtail, Green) [1]; rate 0.0630 kg/ha) | CYPSE herbicidal effect rating (CYPSE (Flatsedge); 0.1250 kg/ha) | CYPSE herbicidal effect rating (CYPSE (Flatsedge); 0.2500 kg/ha)
6.5: herbicidal rating ZEAMX (ZEAMX (Corn, Field) [2]; rate 0.0158 kg/ha) | herbicidal rating ZEAMX (ZEAMX (Corn, Field) [2]; rate 0.0315 kg/ha)
3.0: ECHORC herbicidal effect rating ([6]; 0.0625 kg/ha) | CYPIR herbicidal effect rating (CYPIR (Rice Flatsedge); 0.0625 kg/ha)
2.5: herbicidal rating ORYSAT (ORYSAT (Rice, Tebonnet); rate 0.0158 kg/ha)
6.0: ECHORC herbicidal effect rating ([6]; 0.1250 kg/ha)
5.0: CYPIR herbicidal effect rating (CYPIR (Rice Flatsedge); 0.2500 kg/ha)
1.0: herbicidal rating SETVI (SETVI (Foxtail, Green) [1]; rate 0.0158 kg/ha) | Preemergence herbicidal rating SETVI (SETVI (Foxtail, Green) [3]; rate 0.0625 kg/ha) | Preemergence herbicidal rating TRZAWR ([4]; rate 0.1250 kg/ha)
0.0: Preemergence herbicidal rating ECHCG (ECHCG (Barnyardgrass); rate 0.0156 kg/ha) | Preemergence herbicidal rating ECHCG (ECHCG (Barnyardgrass); rate 0.0313 kg/ha) | Preemergence herbicidal rating ECHCG (ECHCG (Barnyardgrass); rate 0.0625 kg/ha) | Preemergence herbicidal rating ECHCG (ECHCG (Barnyardgrass); rate 0.1250 kg/ha) | Preemergence herbicidal rating SETVI (SETVI (Foxtail, Green) [3]; rate 0.0156 kg/ha) | Preemergence herbicidal rating SETVI (SETVI (Foxtail, Green) [3]; rate 0.0313 kg/ha) | Preemergence herbicidal rating TRZAWR ([4]; rate 0.0156 kg/ha) | Preemergence herbicidal rating TRZAWR ([4]; rate 0.0313 kg/ha) | Preemergence herbicidal rating TRZAWR ([4]; rate 0.0625 kg/ha) | Preemergence herbicidal rating ZEAMX (ZEAMX (Corn, Field) [5]; rate 0.0156 kg/ha) | Preemergence herbicidal rating ZEAMX (ZEAMX (Corn, Field) [5]; rate 0.0313 kg/ha) | Preemergence herbicidal rating ZEAMX (ZEAMX (Corn, Field) [5]; rate 0.0625 kg/ha) | ECHORC herbicidal effect rating ([6]; 0.0313 kg/ha) | CYPIR herbicidal effect rating (CYPIR (Rice Flatsedge); 0.0313 kg/ha)
4.5: herbicidal rating ORYSAT (ORYSAT (Rice, Tebonnet); rate 0.0315 kg/ha) | herbicidal rating ORYSAT (ORYSAT (Rice, Tebonnet); rate 0.0630 kg/ha)

Cn1c(C(F)(F)F)cc(=O)n(-c2cc(N=C3SCC(=O)N3Cc3ccco3)c(Cl)cc2F)c1=O [Compound 122, 3-{4-Chloro-2-fluoro-5-[(3-furfuryl-4-oxo-2-thiazolidinylidene)amino]phenyl}-1-methyl-6-(trifluoromethyl)-2,4(1H,3H)-pyrimidinedione]
8.0: herbicidal effect rating, CYPIR (CYPIR (Rice Flatsedge); 0.2500 kg/ha)
3.0: herbicidal effect rating, CYPSE (CYPSE (Flatsedge); 0.2500 kg/ha)
9.0: herbicidal rating SETVI (SETVI (Foxtail, Green) [1]; rate 0.0625 kg/ha) | herbicidal rating SETVI (SETVI (Foxtail, Green) [1]; rate 0.1250 kg/ha) | Preemergence herbicidal rating SETVI (SETVI (Foxtail, Green) [3]; rate 0.5000 kg/ha)
6.0: herbicidal rating SETVI (SETVI (Foxtail, Green) [1]; rate 0.0156 kg/ha) | herbicidal effect rating, ECHORC ([6]; 0.0313 kg/ha)
3.5: herbicidal rating ORYSAT (ORYSAT (Rice, Tebonnet); rate 0.0156 kg/ha) | herbicidal rating ORYSAT (ORYSAT (Rice, Tebonnet); rate 0.0313 kg/ha) | herbicidal rating ORYSAT (ORYSAT (Rice, Tebonnet); rate 0.0625 kg/ha)
7.0: herbicidal rating SETVI (SETVI (Foxtail, Green) [1]; rate 0.0313 kg/ha) | herbicidal rating ZEAMX (ZEAMX (Corn, Field) [2]; rate 0.0313 kg/ha) | herbicidal rating ZEAMX (ZEAMX (Corn, Field) [2]; rate 0.0625 kg/ha) | herbicidal rating ZEAMX (ZEAMX (Corn, Field) [2]; rate 0.1250 kg/ha) | herbicidal effect rating, ECHORC ([6]; 0.0625 kg/ha) | herbicidal effect rating, ECHORC ([6]; 0.1250 kg/ha) | herbicidal effect rating, ECHORC ([6]; 0.2500 kg/ha) | herbicidal effect rating, CYPIR (CYPIR (Rice Flatsedge); 0.0625 kg/ha) | herbicidal effect rating, CYPIR (CYPIR (Rice Flatsedge); 0.1250 kg/ha)
5.0: herbicidal rating ORYSAT (ORYSAT (Rice, Tebonnet); rate 0.1250 kg/ha)
4.0: herbicidal effect rating, CYPIR (CYPIR (Rice Flatsedge); 0.0313 kg/ha)
0.0: Preemergence herbicidal rating ECHCG (ECHCG (Barnyardgrass); rate 0.0156 kg/ha) | Preemergence herbicidal rating ECHCG (ECHCG (Barnyardgrass); rate 0.0313 kg/ha) | Preemergence herbicidal rating ECHCG (ECHCG (Barnyardgrass); rate 0.0625 kg/ha) | Preemergence herbicidal rating ECHCG (ECHCG (Barnyardgrass); rate 0.1250 kg/ha) | Preemergence herbicidal rating ECHCG (ECHCG (Barnyardgrass); rate 0.2500 kg/ha) | Preemergence herbicidal rating SETVI (SETVI (Foxtail, Green) [3]; rate 0.0156 kg/ha) | Preemergence herbicidal rating SETVI (SETVI (Foxtail, Green) [3]; rate 0.0313 kg/ha) | Preemergence herbicidal rating SETVI (SETVI (Foxtail, Green) [3]; rate 0.0625 kg/ha) | Preemergence herbicidal rating TRZAWR ([4]; rate 0.0156 kg/ha) | Preemergence herbicidal rating TRZAWR ([4]; rate 0.0313 kg/ha) | Preemergence herbicidal rating TRZAWR ([4]; rate 0.0625 kg/ha) | Preemergence herbicidal rating TRZAWR ([4]; rate 0.1250 kg/ha) | Preemergence herbicidal rating TRZAWR ([4]; rate 0.2500 kg/ha) | Preemergence herbicidal rating ZEAMX (ZEAMX (Corn, Field) [5]; rate 0.0156 kg/ha) | Preemergence herbicidal rating ZEAMX (ZEAMX (Corn, Field) [5]; rate 0.0313 kg/ha) | Preemergence herbicidal rating ZEAMX (ZEAMX (Corn, Field) [5]; rate 0.0625 kg/ha) | Preemergence herbicidal rating ZEAMX (ZEAMX (Corn, Field) [5]; rate 0.1250 kg/ha) | Preemergence herbicidal rating ZEAMX (ZEAMX (Corn, Field) [5]; rate 0.2500 kg/ha)
4.5: herbicidal rating ZEAMX (ZEAMX (Corn, Field) [2]; rate 0.0156 kg/ha)
1.0: Preemergence herbicidal rating ECHCG (ECHCG (Barnyardgrass); rate 0.5000 kg/ha) | Preemergence herbicidal rating SETVI (SETVI (Foxtail, Green) [3]; rate 0.1250 kg/ha) | Preemergence herbicidal rating SETVI (SETVI (Foxtail, Green) [3]; rate 0.2500 kg/ha) | Preemergence herbicidal rating TRZAWR ([4]; rate 0.5000 kg/ha) | Preemergence herbicidal rating ZEAMX (ZEAMX (Corn, Field) [5]; rate 0.5000 kg/ha)
